# Test results from paper PMC8674134, “Safety and efficacy of avapritinib in advanced systemic mastocytosis: the phase 1 EXPLORER trial” (Nature Medicine, 2021).
# Where two headings read alike, the source gives them in different places.
# Experiments:
# [1] = tested on: patients with AdvSM and other myeloid malignancies; experiment: Safety: adverse events graded by NCI CTCAE v4.03, phase 1 EXPLORER trial; format: in vivo
# Text: The safety population included all enrolled patients and was used to report AEs and PROs (in those who completed the questionnaire). The dose-determining population included all patients in a cohort in part 1 who received ≥21 prescribed avapritinib doses in C1 and completed follow-up through C1, or experienced DLT. The determination of the MTD and RP2D were based on the dose-determining population. […] The AdvSM safety population was also used to report AEs and OS. […] The response-evaluable population was used to report adjudicated response rates and PFS. The PK population comprised all patients with sufficient plasma concentration–time data to reliably estimate the PK parameters of avapritinib.
# Safety assessments included determination of ECOG performance status, clinical laboratory testing, vital signs, electrocardiograms, brain imaging (MRI or CT scan) and physical examinations. AEs were graded according to National Cancer Institute Common Terminology Criteria (v4.03)[40]. Treatment-emergent AEs were defined as any AE occurring between the first dose of avapritinib through 30 d after the last dose of avapritinib, any event that was considered related to the study drug regardless of the start date of the event, or any event that was present at baseline but worsened intensity or was subsequently considered related to the study drug by the investigator.
# [2] = tested on: mast cell burden in patients with AdvSM; experiment: Changes in measures of mast cell burden (BM mast cells, serum tryptase, spleen volume); format: in vivo, human
# Procedure: Other secondary endpoints included PK, DOR and changes in measures of mast cell burden (percentage of BM mast cells, serum tryptase concentration, KIT D816V VAF by ddPCR (detection limit 0.17%), and spleen and liver volumes). PROs were measured by daily completion of AdvSM-SAF (described below) for patients in part 2 as a secondary outcome[37]–[39]. Exploratory endpoints included time to response, PFS and OS.
# The percentage change from baseline in spleen and liver volume as measured by central radiographic assessment using an MRI or a CT scan was summarized over time in the safety population. In addition, maximum percentage reduction was presented in waterfall plots.
# Responses were assessed according to the protocol schedule. Spleen size was assessed by palpation and by imaging with calculation of volume centrally. KIT D816V VAF in the BM (or in blood if unavailable) was centrally measured using a validated ddPCR assay with a lower limit of detection of 0.17% (Bio-Rad). Other somatic mutations in BM were centrally assayed at baseline by next-generation sequencing.
# [3] = Plasma pharmacokinetics, non-compartmental analysis; format: in vivo, human
# Procedure: On D1 and D15 of C1, blood samples for PK analysis were collected before the dose, and 0.5, 1, 2, 4, 8 and 24 h (C1D1 only) after the dose. C2D1 pre-dose concentration was used as the C1D15 24-h concentration for PK analysis. Additional pre-dose samples were collected on D1 of C3 and C4. Avapritinib PK parameters were obtained by non-compartmental analysis of the plasma concentration data versus nominal time using Phoenix WinNonlin© (version 8.0, Certara).
# Plasma concentration–time profiles across dose levels and dose versus systemic exposure (Cmax and AUC) relationships were assessed graphically. Systemic exposure parameters of interest included the arithmetic and geometric mean, Cmax and AUC, and 90% CIs.
smiles,measurement,setting,value
Cn1cc(-c2cc3c(N4CCN(c5ncc([C@@](C)(N)c6ccc(F)cc6)cn5)CC4)ncnn3c2)cn1 [avapritinib],"Arthralgia AE, patients","[1]; human, in vivo",3%
same,"Cognitive effects (memory impairment, cognitive disorder, confusional state and encephalopathy), patients","[1]; human, in vivo",30%
same,"Cognitive effects leading to treatment discontinuation, patients","[1]; human, in vivo",3%
same,Discontinuation due to related AEs,"[1]; human, in vivo",10%
same,Discontinuation due to unrelated AEs,"[1]; human, in vivo",9%
same,"Grade 1 skin hypopigmentation, patients","[1]; human, in vivo",3%
same,"Hair color changes, patients","[1]; human, in vivo",19%
same,"Hypokalemia AE, patients","[1]; human, in vivo",3%
same,"Intracranial bleeding (ICB) in the absence of prior severe thrombocytopenia (platelets <50 × 10^9/l), patients","[1]; human, in vivo",1%
same,"Intracranial bleeding (ICB), patients","[1]; human, in vivo",13%
same,Intracranial bleeding: cerebral hemorrhage,"[1]; human, in vivo",0 n (%)
same,Median time to first dose reduction,"[1]; human, in vivo",8 weeks
same,Patients with at least one dose reduction due to AEs,"[1]; human, in vivo",72%
same,"Peripheral edema AE, patients","[1]; human, in vivo",45%
same,Anaphylactic reaction,[1]; in vivo,one
same,ICB events associated with antecedent severe thrombocytopenia (platelet count <50 × 10^9/l),[1]; in vivo,seven
same,"ICB events, asymptomatic (grade 1)",[1]; in vivo,Five
same,"ICB events, grade 2",[1]; in vivo,two
same,"ICB events, grade 3",[1]; in vivo,one
same,"ICB events, grade 5","[1]; of nine patients with ICB, associated with head trauma",one
same,Deaths due to AEs,[1]; one (ICB) considered treatment related,six
same,Patients with spleen volume reduced by ≥35%,[2]; 66 patients with a baseline spleen volume assessment,82%
same,Patients with BM mast cells decreased by ≥50%,[2]; patients with AdvSM,92%
same,Patients with mast cell aggregates eliminated,[2]; patients with AdvSM,77%
same,Patients with serum tryptase reduced by ≥50%,[2]; patients with AdvSM,99%
same,Patients with serum tryptase reduced to <20 ng ml^−1,[2]; patients with AdvSM,74%
same,Time at which steady state was reached,[3]; QD dosing,≤ 15 days
same,half-life,"[3]; human, plasma, oral, Cycle 1 Day 15, read-out: Steady state t½",> 20 h
same,half-life,"[3]; human, plasma, oral, range across doses, read-out: Mean plasma elimination half-life",19.8 to 38.3 h
same,AUC,"[3]; human, plasma, oral, 200 mg QD, C1 D15, CV 54.2%, n = 16, read-out: Steady-state geometric mean AUC0-τ",7340 ng·h/mL
same,Cmax,"[3]; human, plasma, oral, 200 mg QD, C1 D15, CV 62.2%, n = 18, read-out: Steady-state geometric mean maximum plasma concentration (Cmax)",433 ng/mL
same,Tmax,"[3]; human, plasma, single oral doses of 30 to 400 mg, read-out: Time to maximum plasma concentration (Tmax)",2 to 4 h
